One assay deals with FGFR1 (Homo sapiens (Human), UniProt P11362). In words: Kinase assay, binding constants (Kd), kinase-tagged T7 phage, qPCR. The method in brief:
(§1)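 Competition binding: T7 phage-tagged kinase + biotin-ligand beads + compound (11 pts, 3-fold, 0.9% DMSO). Elution 30 min RT with free ligand; qPCR quantitation. Kd via Hill fit, slope −1.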

In a further assay the target is FGFR3 (V555M) (Homo sapiens (Human), UniProt P22607, V555M). Described as above. The note with it: V555M mutant. The method in brief:
as §1

In a further assay the target is FGFR2 (Homo sapiens (Human), UniProt P21802). The assay is described as above. The method in brief:
as §1

In another assay the target is FGFR4 (Homo sapiens (Human), UniProt P22455). The description is as above. The method in brief:
as §1

The next assay concerns the target FGFR3 (Homo sapiens (Human), UniProt P22607). The assay is described as above. The method in brief:
as §1

Assay [1] has as its system KG-1 cells (FGFR1-fusion). Kind of assay: KG-1 cancer cell line cell viability assay (CellTiter-Glo 2.0). It is filed as cell-based. The conditions noted are these: Homo sapiens, 72 hours, Cell Titer Glo 2.0. The method in brief:
(§2)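 RT112/84, UM-UC-14 and KG-1 cells (10,000/well, RPMI1640 with 10% FBS) were treated with a 9-dose, 10-fold series starting at 30 μM, in triplicate, for 72 h at 37 °C. ATP was read by CellTiter-Glo 2.0 luminescence relative to DMSO controls, and IC50 was fitted with a 4-parameter sigmoidal model.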
For orientation: In ATP-based viability assays light output follows the ATP content of the culture.

The subject of assay [2] is UM-UC-14 cells (FGFR3(S249C)). In words: UM-UC-14 cancer cell line cell viability assay (CellTiter-Glo 2.0). The class given is cell-based. The conditions noted are these: UMUC14, 72 hours, Cell Titer Glo 2.0. The source says: Experimental Purpose: To detect the change of intracellular ATP by Cell Titer-Glo® and to evaluate the inhibitory effect of the compounds on cancer cell lines by determining the in vitro IC50 value of the compounds.
Cell Titer-Glo® 2.0 Luminescent cell viability assay reagent was purchased from Promega (Madison, WI). RT112/84 and KG-1 cell lines were purchased from American Type Culture Collection (Manassas, VA). UM-UC-14 cell line was purchased from Sigma (St. Louis, MO). RT112/84, UM-UC-14, and KG-1 cells were cultured in RPMI1640 media supplemented with 10% fetal bovine serum. Cultures were maintained at 37° C. in a humidified atmosphere of 5% C02 and 95% air.
Cell Viability Assay Procedure: Cells were plated in 96-well clear bottom/white plates (Corning #3903) at 10,000 cells/well in 100 μl of media, incubated overnight. The next day, test compound DMSO stock solutions were made at 10 mM and 2 μM final concentration. Compounds were then added to cells in a 9-dose, 10-fold dilution series starting at 30 μM with an HP 300e Digital Dispenser (each dose was applied in triplicate). DMSO was backfilled to each well up to 301 nL total volume of test compound+DMSO, and a total of 301 nL DMSO was added to a control/no test compound well in triplicate. The cells in cell culture plates were incubated with the compounds at 37° C. and 5% C02 for 72 hours. Then 50 μl of Cell Titer Glo 2.0 reagent was added to each well of the cell culture plates. The contents were covered from light and mixed on an orbital shaker at room temperature for 10 min. Luminescence was recorded by a Synergy H1 Microplate Reader (Biotek, Winooski, VT). Cells were assessed as a percentage of DMSO only treated control cells. Curves were plotted and IC50 values were calculated using the GraphPad Prism 8 program based on a sigmoidal dose-response equation (4 parameter).

For another assay, the target named is FGFR1-BCR Ba/F3 cells (Homo sapiens, UniProt P11362). In words: Ba/F3 cell viability assay (CellTiter-Glo 2.0), FGFR1-BCR Ba/F3. It is filed as cell-based. The conditions noted are these: read-out: Ba/F3 Cells FGFR1 (IC50 nM), 48 hours, Cell Titer Glo 2.0. The method in brief:
(§3)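 IL3-independent Ba/F3 lines driven by FGFR1-BCR or FGFR3-BAIAP2L1 fusions, in RPMI1640/10% FBS. 9-dose 10-fold series from 30 μM, triplicate, 48 h at 37 °C; viability by CellTiter-Glo 2.0 ATP luminescence relative to DMSO control, IC50 from 4-parameter sigmoidal fit.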

The subject of assay [3] is RT112/84 cells (FGFR3-fusion). Kind of assay: RT112/84 cancer cell line cell viability assay (CellTiter-Glo 2.0). It is filed as cell-based. The note with it: Homo sapiens, 72 hours, Cell Titer Glo 2.0. The method in brief:
as §2

Assay [4] addresses FGFR3-BAIAP2L1 Ba/F3 cells (Homo sapiens, UniProt P22607). Kind of assay: Ba/F3 cell viability assay (CellTiter-Glo 2.0), FGFR3-BAIAP2L1 Ba/F3. It is filed as cell-based. The note with it: for Ba/F3 FGFR1/FGFR3 Selectivity: FGFR3 > FGFR1 selectivity ratio in Ba/F3 FGFR fusion cell based assays; for IC50: read-out: Ba/F3 Cells FGFR3 (IC50 nM), FGFR3-BAIAP2L1 Ba/F3 cells, 48 hours, Cell Titer Glo 2.0. The method in brief:
as §3

FGFR4, sequence (P22455 22-802): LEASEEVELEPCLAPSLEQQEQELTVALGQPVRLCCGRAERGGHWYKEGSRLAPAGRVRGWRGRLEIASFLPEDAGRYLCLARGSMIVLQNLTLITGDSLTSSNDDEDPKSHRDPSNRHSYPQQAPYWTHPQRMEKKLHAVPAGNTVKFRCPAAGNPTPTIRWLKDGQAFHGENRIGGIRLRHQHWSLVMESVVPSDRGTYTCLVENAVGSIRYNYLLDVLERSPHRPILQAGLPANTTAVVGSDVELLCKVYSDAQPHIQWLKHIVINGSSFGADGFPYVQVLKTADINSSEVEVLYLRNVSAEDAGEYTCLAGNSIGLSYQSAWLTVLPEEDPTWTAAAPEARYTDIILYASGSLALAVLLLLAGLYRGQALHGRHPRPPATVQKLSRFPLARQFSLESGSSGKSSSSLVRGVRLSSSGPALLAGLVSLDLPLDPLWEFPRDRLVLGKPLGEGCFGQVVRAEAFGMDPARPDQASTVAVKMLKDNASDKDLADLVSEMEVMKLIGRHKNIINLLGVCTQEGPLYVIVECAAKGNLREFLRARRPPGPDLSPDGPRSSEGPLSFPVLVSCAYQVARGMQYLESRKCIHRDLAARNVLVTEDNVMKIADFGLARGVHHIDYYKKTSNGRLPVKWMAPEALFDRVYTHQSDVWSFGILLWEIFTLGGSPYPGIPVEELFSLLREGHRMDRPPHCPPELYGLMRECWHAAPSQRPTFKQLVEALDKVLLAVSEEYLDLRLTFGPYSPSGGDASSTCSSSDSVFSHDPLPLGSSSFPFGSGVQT
FGFR3 (V555M), sequence (P22607 23-806 V555M): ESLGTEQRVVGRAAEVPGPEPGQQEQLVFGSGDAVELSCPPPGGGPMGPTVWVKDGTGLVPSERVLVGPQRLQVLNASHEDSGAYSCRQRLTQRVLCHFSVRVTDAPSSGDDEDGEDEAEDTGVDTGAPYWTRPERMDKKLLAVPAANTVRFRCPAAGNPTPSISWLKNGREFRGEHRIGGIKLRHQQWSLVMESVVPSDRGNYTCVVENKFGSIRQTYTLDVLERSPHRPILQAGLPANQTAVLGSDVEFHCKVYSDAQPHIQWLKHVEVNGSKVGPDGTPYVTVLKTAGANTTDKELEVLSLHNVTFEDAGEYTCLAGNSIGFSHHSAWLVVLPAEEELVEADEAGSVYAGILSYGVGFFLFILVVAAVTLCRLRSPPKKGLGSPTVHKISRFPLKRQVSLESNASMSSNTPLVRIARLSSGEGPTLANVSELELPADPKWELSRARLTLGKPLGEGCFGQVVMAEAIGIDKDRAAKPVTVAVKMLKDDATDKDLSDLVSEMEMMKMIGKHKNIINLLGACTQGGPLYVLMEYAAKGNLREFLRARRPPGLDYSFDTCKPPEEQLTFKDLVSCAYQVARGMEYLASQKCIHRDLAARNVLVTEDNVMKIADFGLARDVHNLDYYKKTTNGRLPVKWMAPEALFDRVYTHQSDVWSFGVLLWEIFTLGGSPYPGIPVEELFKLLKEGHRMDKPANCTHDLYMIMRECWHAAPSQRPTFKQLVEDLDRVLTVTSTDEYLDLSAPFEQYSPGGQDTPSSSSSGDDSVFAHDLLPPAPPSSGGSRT
FGFR1, sequence (P11362 22-822): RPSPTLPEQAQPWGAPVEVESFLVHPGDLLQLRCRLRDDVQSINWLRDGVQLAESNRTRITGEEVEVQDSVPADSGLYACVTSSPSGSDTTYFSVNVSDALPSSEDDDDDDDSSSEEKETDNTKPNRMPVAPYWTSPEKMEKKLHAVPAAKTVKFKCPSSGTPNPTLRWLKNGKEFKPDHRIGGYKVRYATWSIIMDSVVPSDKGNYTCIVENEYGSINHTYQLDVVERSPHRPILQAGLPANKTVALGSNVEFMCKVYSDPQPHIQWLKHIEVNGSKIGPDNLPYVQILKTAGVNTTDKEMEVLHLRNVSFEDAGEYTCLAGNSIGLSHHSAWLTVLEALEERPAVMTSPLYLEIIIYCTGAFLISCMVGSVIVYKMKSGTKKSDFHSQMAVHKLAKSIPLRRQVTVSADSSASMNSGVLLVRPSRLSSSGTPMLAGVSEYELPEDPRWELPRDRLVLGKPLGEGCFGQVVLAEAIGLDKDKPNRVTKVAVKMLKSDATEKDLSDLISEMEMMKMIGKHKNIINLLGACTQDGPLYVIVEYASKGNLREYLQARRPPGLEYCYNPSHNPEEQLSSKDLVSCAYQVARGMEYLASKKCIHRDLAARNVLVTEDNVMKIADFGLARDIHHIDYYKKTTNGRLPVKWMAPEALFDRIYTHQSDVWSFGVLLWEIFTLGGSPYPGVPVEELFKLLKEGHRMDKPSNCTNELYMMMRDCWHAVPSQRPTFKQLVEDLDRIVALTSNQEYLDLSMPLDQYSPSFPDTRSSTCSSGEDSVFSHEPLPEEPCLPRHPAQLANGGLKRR
FGFR1-BCR Ba/F3 cells, sequence (P11362 22-822 limits assumed, change not shown): as the sequence (P11362 22-822) above
FGFR3, sequence (P22607 23-806): as the sequence (P22607 23-806 V555M) above, with M533V counted along it
FGFR3-BAIAP2L1 Ba/F3 cells, sequence (P22607 23-806 limits assumed, change not shown): as the sequence (P22607 23-806 V555M) above, with M533V counted along it
FGFR2, sequence (P21802 22-821): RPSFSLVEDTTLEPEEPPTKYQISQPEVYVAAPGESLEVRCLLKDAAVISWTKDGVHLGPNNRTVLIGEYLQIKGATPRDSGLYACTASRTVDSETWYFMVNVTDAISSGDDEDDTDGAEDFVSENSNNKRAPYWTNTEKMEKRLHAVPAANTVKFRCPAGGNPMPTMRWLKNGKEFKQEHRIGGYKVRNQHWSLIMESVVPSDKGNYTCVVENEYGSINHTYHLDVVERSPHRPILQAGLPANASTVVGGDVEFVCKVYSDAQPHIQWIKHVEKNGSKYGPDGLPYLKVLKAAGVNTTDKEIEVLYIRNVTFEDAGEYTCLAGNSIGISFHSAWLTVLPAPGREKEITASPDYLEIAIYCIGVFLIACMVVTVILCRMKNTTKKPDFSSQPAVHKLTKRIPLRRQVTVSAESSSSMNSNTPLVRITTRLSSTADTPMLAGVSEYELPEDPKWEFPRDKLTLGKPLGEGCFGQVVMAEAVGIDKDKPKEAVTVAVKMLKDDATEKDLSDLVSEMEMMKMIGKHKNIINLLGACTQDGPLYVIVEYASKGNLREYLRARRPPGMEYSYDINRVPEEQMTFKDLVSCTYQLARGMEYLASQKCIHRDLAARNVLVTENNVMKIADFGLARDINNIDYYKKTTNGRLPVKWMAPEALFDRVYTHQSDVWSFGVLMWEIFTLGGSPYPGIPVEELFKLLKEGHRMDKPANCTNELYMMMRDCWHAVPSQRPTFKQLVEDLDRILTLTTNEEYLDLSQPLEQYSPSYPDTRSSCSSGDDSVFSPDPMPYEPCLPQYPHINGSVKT

Consider `C[C@@H](Oc1ccc2[nH]nc(-c3ccc(N4CCN(C(=O)N5CCN(C)CC5)CC4)nc3)c2c1)c1c(Cl)cncc1Cl` [Example 4, [4-[5-[5-[(1R)-1-(3,5-dichloro-4-pyridyl)ethoxy]-1H-indazol-3-yl]-2-pyridyl]piperazin-1-yl]-(4-methylpiperazin-1-yl)methanone], for which the dissociation constant Kd on FGFR1, on FGFR3 (V555M), on FGFR2, at FGFR4 and at FGFR3 was 1 to 20 nM each time. For the same compound, the IC50 in assay [1] was 20 to 100 nM; in assay [2], 1 to 20 nM; on FGFR1-BCR Ba/F3 cells it was 100 to 300 nM; in [3], 1 to 20 nM; in assay [4], 1 to 20 nM. Also, the “Ba/F3 FGFR1/FGFR3 Selectivity” value in assay [4] is given as 29.

Consider `C[C@@H](Oc1ccc2[nH]nc(-c3ccc(N4CCN(C(=O)N(C)C)CC4)nc3)c2c1)c1c(Cl)cncc1Cl` [Example 5, 4-[5-[5-[(1R)-1-(3,5-dichloro-4-pyridyl)ethoxy]-1H-indazol-3-yl]-2-pyridyl]-N,N-dimethyl-piperazine-1-carboxamide], for which the equilibrium dissociation constant (Kd) on FGFR1, at FGFR3 (V555M), at FGFR2, on FGFR4 and on FGFR3 was 1 to 20 nM throughout. For the same compound, the IC50 is 20 to 100 nM in assay [1]; 1 to 20 nM in assay [2]; 100 to 300 nM on FGFR1-BCR Ba/F3 cells; 1 to 20 nM in [3]; 1 to 20 nM in assay [4]. In addition, the “Ba/F3 FGFR1/FGFR3 Selectivity” value in assay [4] is given as 22.

On to `C[C@@H](Oc1ccc2[nH]nc(-c3ccc(N4CCN(S(C)(=O)=O)CC4)nc3)c2c1)c1c(Cl)cncc1Cl` [Example 6, 5-[(1R)-1-(3,5-dichloro-4-pyridyl)ethoxy]-3-[6-(4-methylsulfonyl-piperazin-1-yl)-3-pyridyl]-1H-indazole], for which the Kd (in general, the constant that tells how readily two partners part at equilibrium) is 1 to 20 nM at FGFR1; 1 to 20 nM on FGFR3 (V555M); 20 to 100 nM on FGFR2; 1 to 20 nM on FGFR4; 1 to 20 nM at FGFR3. Moreover, the IC50 in assay [1] was in the range of 20 to 100 nM; in assay [2], 1 to 20 nM; on FGFR1-BCR Ba/F3 cells, 20 to 100 nM; in assay [3], 1 to 20 nM; in assay [4] it was 1 to 20 nM. Also, in [4], the “Ba/F3 FGFR1/FGFR3 Selectivity” value was 13.

On to `C[C@@H](Oc1ccc2[nH]nc(-c3ccc(N4CCN(S(=O)(=O)N5CCN(C)CC5)CC4)nc3)c2c1)c1c(Cl)cncc1Cl` [Example 8, 5-[(1R)-1-(3,5-dichloro-4-pyridyl)ethoxy]-3-[6-[4-(4-methylpiperazin-1-yl)sulfonylpiperazin-1-yl]-3-pyridyl]-1H-indazole], for which the Kd was 20 to 100 nM on FGFR1; 1 to 20 nM on FGFR3 (V555M); 20 to 100 nM at FGFR2; 1 to 20 nM at FGFR4; 1 to 20 nM at FGFR3. The IC50 fell in the range of 100 to 300 nM in [1]; 1 to 20 nM in assay [2]; 100 to 300 nM at FGFR1-BCR Ba/F3 cells; 1 to 20 nM in assay [3]; 1 to 20 nM in assay [4]. The “Ba/F3 FGFR1/FGFR3 Selectivity” value in assay [4] is on record as 16.

On to `CCC(=O)N1CCN(c2ccc(-c3n[nH]c4ccc(O[C@H](C)c5c(Cl)cncc5Cl)cc34)cn2)CC1` [Example 9, 1-[4-[5-[5-[(1R)-1-(3,5-dichloro-4-pyridyl)ethoxy]-1H-indazol-3-yl]-2-pyridyl]piperazin-1-yl]propan-1-one], for which the dissociation constant Kd at FGFR1, on FGFR3 (V555M), at FGFR2, on FGFR4 and on FGFR3 was 1 to 20 nM each time. Also, the IC50 in [1] lay in the range of 20 to 100 nM; in assay [2], 1 to 20 nM; on FGFR1-BCR Ba/F3 cells, 100 to 300 nM; in assay [3], 1 to 20 nM; in assay [4] it was 1 to 20 nM. In addition, the “Ba/F3 FGFR1/FGFR3 Selectivity” value in assay [4] turned out to be 19.

With `C[C@@H](Oc1ccc2[nH]nc(-c3cnc(N4CCNCC4)c(F)c3)c2c1)c1c(Cl)cncc1Cl` [Example 10, 5-[(1R)-1-(3,5-Dichloro-4-pyridyl)ethoxy]-3-(5-fluoro-6-piperazin-1-yl-3-pyridyl)-1H-indazole], the dissociation constant Kd on FGFR1, at FGFR3 (V555M), on FGFR2, at FGFR4 and at FGFR3 was 1 to 20 nM each time. The IC50 in assay [1] is 20 to 100 nM; in assay [2] it was 1 to 20 nM; at FGFR1-BCR Ba/F3 cells, 20 to 100 nM; in assay [3], 1 to 20 nM; in [4] it was 1 to 20 nM. For the same compound, the “Ba/F3 FGFR1/FGFR3 Selectivity” value in assay [4] worked out at 9.

In the case of `C[C@@H](Oc1ccc2[nH]nc(-c3cnc(N4CCNCC4)nc3)c2c1)c1c(Cl)cncc1Cl` [Example 11, 5-[(1R)-1-(3,5-dichloro-4-pyridyl)ethoxy]-3-(2-piperazin-1-ylpyrimidin-5-yl)-1H-indazole], the Kd at FGFR1, at FGFR3 (V555M), on FGFR2, at FGFR4 and on FGFR3 was 1 to 20 nM in each case. Also, the IC50 in assay [1] is 20 to 100 nM; in [2], 20 to 100 nM; at FGFR1-BCR Ba/F3 cells, 100 to 300 nM; in assay [3] it was 1 to 20 nM; in assay [4] it was 1 to 20 nM. For the same compound, the “Ba/F3 FGFR1/FGFR3 Selectivity” value in assay [4] worked out at 9.

For `C[C@@H](Oc1ccc2[nH]nc(-c3ccc(N4CCN(C(N)=O)CC4)nc3)c2c1)c1c(Cl)cncc1Cl` [Example 12, 4-[5-[5-[(1R)-1-(3,5-dichloro-4-pyridyl)ethoxy]-1H-indazol-3-yl]-2-pyridyl]piperazine-1-carboxamide], the Kd at FGFR1, at FGFR3 (V555M), on FGFR2, at FGFR4 and on FGFR3 was 1 to 20 nM throughout. For the same compound, the IC50 is 20 to 100 nM in assay [1]; 1 to 20 nM in assay [2]; 100 to 300 nM on FGFR1-BCR Ba/F3 cells; 1 to 20 nM in assay [3]; 1 to 20 nM in assay [4]. Further, the “Ba/F3 FGFR1/FGFR3 Selectivity” value in [4] was found to be 19.

On to `C[C@@H](Oc1ccc2[nH]nc(-c3cnc(N4CCN(C(=O)N5CCN(C)CC5)CC4)c(F)c3)c2c1)c1c(Cl)cncc1Cl` [Example 13, [4-[5-[5-[(1R)-1-(3,5-Dichloro-4-pyridyl)ethoxy]-1H-indazol-3-yl]-3-fluoro-2-pyridyl]piperazin-1-yl]-(4-methylpiperazin-1-yl)methanone], for which the Kd at FGFR1, at FGFR3 (V555M), on FGFR2, at FGFR4 and at FGFR3 was 1 to 20 nM each time. The IC50 in assay [1] fell in the range of 20 to 100 nM; in assay [2] it was 20 to 100 nM; on FGFR1-BCR Ba/F3 cells, 100 to 300 nM; in assay [3], 1 to 20 nM; in assay [4], 20 to 100 nM. Also, the “Ba/F3 FGFR1/FGFR3 Selectivity” value in assay [4] was determined as 11.

The record behind these values is patent publication US20240109865A1, “INDAZOLE COMPOUNDS AS KINASE INHIBITORS” (TYRA BIOSCIENCES, INC., priority 2020, published 2024).
